For one substance, toxicological effects results are on record in patent US7709004B2, “Method of producing an HIV-1 immune response” (Bionor Immuno AS, priority 1999, dated 2010).

This data set deals with NMFI female mice. In words: toxicity of the dipeptide by injection to mice. The data set is classed as in vivo. To be noted: 100 μg per kg bodyweight, test solution 4 mg/ml in 0.9% NaCl. The method, then:
The dipeptide of Example 13 was diluted in 0.9% NaCl) to a test solution concentration of 4 mg/ml. The peptide was administered by injection to NMFI female mice in a dose of 100 μg per kg bodyweight.

Bridge positions count the residues as written; N and C are the ends. Ends that are not written are not given here. I, II: the chains in the order shown.

On to “I: WIIPGLNPLVGGGKLYSPTSILCG-NH2 / II: KALGPGATLQTPWTACQGVG-NH2 (disulfide I:23-II:16) [Example 13]”, for which the toxicological effects entry is given as “No toxicological effects were observed”.
